In patent US11839679B2, “Gamma-diketones for treatment and prevention of aging skin and wrinkles” (BioSplice Therapeutics, Inc., priority 2014, dated 2023):

Tested on: fine lines, wrinkles in the outer canthus of the eyes (crow's feet area)
Assay: Panelist self-assessment questionnaire, Example 1
Assay type: in vivo, human
Parameters: key to Q2 appearance of my skin around either of my eyes, Score: 1: Better; 2: Little better; 3: Same; 4: Little worse; 5: Worse
Conditions: for Q3 how do you feel about the treated area surrounding your eyes and the appearance of wrinkles, % Responders Score 3: Score 3 = Neither satisfied or dissatisfied; for Q2 appearance of my skin around either of my eyes, % Responders Score 3: Score 3 = Same; for Q4 any discomfort, other than slight tingling, in the treated area during the study, % Responders Score 3: Score 3 = Yes, occasional discomfort lasting more than one hour; for Q1 My wrinkles in the eye area have improved, % Responders Score 4: Score 4 = Disagree; for Q3 how do you feel about the treated area surrounding your eyes and the appearance of wrinkles, % Responders Score 4: Score 4 = Dissatisfied; for Q2 appearance of my skin around either of my eyes, % Responders Score 4: Score 4 = Little worse; for Q4 any discomfort, other than slight tingling, in the treated area during the study, % Responders Score 4: Score 4 = Yes, every day lasting less than an hour; for Q1 My wrinkles in the eye area have improved, % Responders Score 5: Score 5 = Strongly disagree; for Q3 how do you feel about the treated area surrounding your eyes and the appearance of wrinkles, % Responders Score 5: Score 5 = Very Dissatisfied; for Q2 appearance of my skin around either of my eyes, % Responders Score 5: Score 5 = Worse; for Q4 any discomfort, other than slight tingling, in the treated area during the study, % Responders Score 5: Score 5 = Yes, everyday lasting more than an hour
Method: Three groups of women were recruited to evaluate and compare the efficacy of three anti-aging test products (targeting the periorbital eye area) intended to reduce the appearance of fine lines, wrinkles in the outer canthus of the eyes (crow's feet area) over a 12 week period. Wrinkle assessment was conducted instrumentally using a Visioscan image analysis system. Effectiveness of the test product was evaluated using panelist self-assessment via questionnaire responses comprised of 3-4 questions (Q1, Q2, Q3 & Q4). Each stage in the progression of treatments was photographically documented using a High Resolution Scientifically Matched Photography technique. Image analysis was utilized to quantify changes in fine lines and crow's feet condition observed in the Scientifically Matched Photographs.
Subject Selection: • Number: Six subjects (two per group) to complete the study. • Sex: Females • Race: Caucasian/Asian/Hispanic • Age Range: 40 through 60 years old
Test samples: • Topical 0.15% of Compound #222 in Oil (a 50/50 mixture of • Propylene Glycol Dicaprylate/Dicaprate and Caprylic/Capric Triglyceride) (Cohort 1) • Topical 0.15% of Compound #222 in PEG400 (Cohort 2) • Topical 0.05% of Compound #222 in PEG400 (Cohort 3)
All subjects were instructed to use the test material once a day, as part of their daily skin care routine. Immediately following baseline evaluations, the subjects were issued the product with the following instructions:
GROUP 1—Compound #222 Topical 0.15% in oil (Cohort 1): The subjects were instructed to hold the bottle at an angle such that the roller-ball was at bottom and apply the roller-ball to the periorbital area, including the crow's feet area, 2-3 times, starting from the area under the eye (and above the cheekbone) and moving up towards the outer tip of the eye-brow. After 2-3 rolls, they were able to see wetness on the treated area. This procedure was repeated for the other eye.
GROUPS 2 & 3 Compound #222 Topical 0.15% in PEG (Cohort 2) & Compound #222 Topical 0.05% in PEG (Cohort 3): The subjects were instructed to hold the dispenser upright with one hand and with the tip of the index finger on the pump (similar to holding a spray container), pour a small amount of the product into the palm of their other hand by pumping once or twice. The product was then applied on to the periorbital area, including the crow's feet area, of both eyes with their index finger.
[…] After acclimating to ambient conditions, High Resolution Scientifically Matched Photographs were be taken and biophysical measurements (Surface Evaluation of Living Skin via Visioscan) were repeated using the standard template to identify test sites on the face. In addition (during the acclimation period) all participants were be asked to fill out a self-assessment questionnaire.
The source data was Visioscan and PhotoGrammetrix Image Analysis readings along with subjective assessments, which were totaled and reported as average scores. Photographs were placed side by side as to compare the photographs of before and after application of the test product in the eye area. Wrinkle reduction analysis source data consisted of crow's feet area quantification in relative units (px), collected at baseline and, the week 2, 4, 8 and 12 evaluations. The data obtained via Visioscan and from PhotoGrammetrix Image Analysis was quoted as % differences from baseline at each of the previously described time points. A paired t-test analysis was conducted in order to compare the results of post test product application measurements to baseline measurements where applicable. Statistical significance was established if p≤(α=0.05) was calculated.

[1] = Day 7, Topical 0.05% in PEG (Cohort 3)
[2] = Day 7, Topical 0.15% in Oil (Cohort 1)
[3] = Day 7, Topical 0.15% in PEG (Cohort 2)
[4] = Day 14, Topical 0.05% in PEG (Cohort 3)
[5] = Day 14, Topical 0.15% in Oil (Cohort 1)
[6] = Day 14, Topical 0.15% in PEG (Cohort 2)

- Q4 any discomfort, other than slight tingling, in the treated area during the study, % Responders Score 3 [1]: 0%
- Q4 any discomfort, other than slight tingling, in the treated area during the study, % Responders Score 3 [2]: 0%
- Q4 any discomfort, other than slight tingling, in the treated area during the study, % Responders Score 3 [3]: 0%
- Q4 any discomfort, other than slight tingling, in the treated area during the study, % Responders Score 3 [4]: 0%
- Q4 any discomfort, other than slight tingling, in the treated area during the study, % Responders Score 3 [5]: 0%
- Q4 any discomfort, other than slight tingling, in the treated area during the study, % Responders Score 3 [6]: 0%
- Q4 any discomfort, other than slight tingling, in the treated area during the study, % Responders Score 4 [1]: 0%
- Q4 any discomfort, other than slight tingling, in the treated area during the study, % Responders Score 4 [2]: 0%
- Q4 any discomfort, other than slight tingling, in the treated area during the study, % Responders Score 4 [3]: 0%
- Q4 any discomfort, other than slight tingling, in the treated area during the study, % Responders Score 4 [4]: 0%
- Q4 any discomfort, other than slight tingling, in the treated area during the study, % Responders Score 4 [5]: 0%
- Q4 any discomfort, other than slight tingling, in the treated area during the study, % Responders Score 4 [6]: 50%
- Q4 any discomfort, other than slight tingling, in the treated area during the study, % Responders Score 5 [1]: 0%
- Q4 any discomfort, other than slight tingling, in the treated area during the study, % Responders Score 5 [2]: 0%
- Q4 any discomfort, other than slight tingling, in the treated area during the study, % Responders Score 5 [3]: 0%
- Q4 any discomfort, other than slight tingling, in the treated area during the study, % Responders Score 5 [4]: 0%
- Q4 any discomfort, other than slight tingling, in the treated area during the study, % Responders Score 5 [5]: 0%
- Q4 any discomfort, other than slight tingling, in the treated area during the study, % Responders Score 5 [6]: 0%
Compound: O=C(CCC(=O)c1ccc2c(c1)OCO2)c1ccccc1 [#222]
- Q3 how do you feel about the treated area surrounding your eyes and the appearance of wrinkles, % Responders Score 3 [1]: 50%
- Q3 how do you feel about the treated area surrounding your eyes and the appearance of wrinkles, % Responders Score 3 [2]: 50%
- Q3 how do you feel about the treated area surrounding your eyes and the appearance of wrinkles, % Responders Score 3 [3]: 50%
- Q3 how do you feel about the treated area surrounding your eyes and the appearance of wrinkles, % Responders Score 3 [4]: 0%
- Q3 how do you feel about the treated area surrounding your eyes and the appearance of wrinkles, % Responders Score 3 [5]: 50%
- Q3 how do you feel about the treated area surrounding your eyes and the appearance of wrinkles, % Responders Score 3 [6]: 0%
- Q2 appearance of my skin around either of my eyes, % Responders Score 3 [1]: 0%
- Q2 appearance of my skin around either of my eyes, % Responders Score 3 [2]: 50%
- Q2 appearance of my skin around either of my eyes, % Responders Score 3 [3]: 50%
- Q2 appearance of my skin around either of my eyes, % Responders Score 3 [4]: 0%
- Q2 appearance of my skin around either of my eyes, % Responders Score 3 [5]: 50%
- Q2 appearance of my skin around either of my eyes, % Responders Score 3 [6]: 50%
- Q1 My wrinkles in the eye area have improved, % Responders Score 4 [1]: 0%
- Q1 My wrinkles in the eye area have improved, % Responders Score 4 [2]: 0%
- Q1 My wrinkles in the eye area have improved, % Responders Score 4 [3]: 50%
- Q1 My wrinkles in the eye area have improved, % Responders Score 4 [4]: 0%
- Q1 My wrinkles in the eye area have improved, % Responders Score 4 [5]: 50%
- Q1 My wrinkles in the eye area have improved, % Responders Score 4 [6]: 50%
- Q3 how do you feel about the treated area surrounding your eyes and the appearance of wrinkles, % Responders Score 4 [1]: 0%
- Q3 how do you feel about the treated area surrounding your eyes and the appearance of wrinkles, % Responders Score 4 [2]: 0%
- Q3 how do you feel about the treated area surrounding your eyes and the appearance of wrinkles, % Responders Score 4 [3]: 0%
- Q3 how do you feel about the treated area surrounding your eyes and the appearance of wrinkles, % Responders Score 4 [4]: 0%
- Q3 how do you feel about the treated area surrounding your eyes and the appearance of wrinkles, % Responders Score 4 [5]: 0%
- Q3 how do you feel about the treated area surrounding your eyes and the appearance of wrinkles, % Responders Score 4 [6]: 50%
- Q2 appearance of my skin around either of my eyes, % Responders Score 4 [1]: 0%
- Q2 appearance of my skin around either of my eyes, % Responders Score 4 [2]: 0%
- Q2 appearance of my skin around either of my eyes, % Responders Score 4 [3]: 0%
- Q2 appearance of my skin around either of my eyes, % Responders Score 4 [4]: 0%
- Q2 appearance of my skin around either of my eyes, % Responders Score 4 [5]: 0%
- Q2 appearance of my skin around either of my eyes, % Responders Score 4 [6]: 0%
- Q1 My wrinkles in the eye area have improved, % Responders Score 5 [1]: 0%
- Q1 My wrinkles in the eye area have improved, % Responders Score 5 [2]: 50%
- Q1 My wrinkles in the eye area have improved, % Responders Score 5 [3]: 0%
- Q1 My wrinkles in the eye area have improved, % Responders Score 5 [4]: 0%
- Q1 My wrinkles in the eye area have improved, % Responders Score 5 [5]: 0%
- Q1 My wrinkles in the eye area have improved, % Responders Score 5 [6]: 0%
- Q3 how do you feel about the treated area surrounding your eyes and the appearance of wrinkles, % Responders Score 5 [1]: 0%
- Q3 how do you feel about the treated area surrounding your eyes and the appearance of wrinkles, % Responders Score 5 [2]: 0%
- Q3 how do you feel about the treated area surrounding your eyes and the appearance of wrinkles, % Responders Score 5 [3]: 0%
- Q3 how do you feel about the treated area surrounding your eyes and the appearance of wrinkles, % Responders Score 5 [4]: 0%
- Q3 how do you feel about the treated area surrounding your eyes and the appearance of wrinkles, % Responders Score 5 [5]: 0%
- Q3 how do you feel about the treated area surrounding your eyes and the appearance of wrinkles, % Responders Score 5 [6]: 0%
- Q2 appearance of my skin around either of my eyes, % Responders Score 5 [1]: 0%
- Q2 appearance of my skin around either of my eyes, % Responders Score 5 [2]: 0%
- Q2 appearance of my skin around either of my eyes, % Responders Score 5 [3]: 0%
- Q2 appearance of my skin around either of my eyes, % Responders Score 5 [4]: 0%
- Q2 appearance of my skin around either of my eyes, % Responders Score 5 [5]: 0%
- Q2 appearance of my skin around either of my eyes, % Responders Score 5 [6]: 0%
- Q2 appearance of my skin around either of my eyes, Score (Subject #1, Day 7, Topical 0.15% in Oil (Cohort 1)): 3
- Q2 appearance of my skin around either of my eyes, Score (Subject #1, Day 14, Topical 0.15% in Oil (Cohort 1)): 3
- Q2 appearance of my skin around either of my eyes, Score (Subject #2, Day 7, Topical 0.15% in Oil (Cohort 1)): 2
- Q2 appearance of my skin around either of my eyes, Score (Subject #2, Day 14, Topical 0.15% in Oil (Cohort 1)): 2
- Q2 appearance of my skin around either of my eyes, Score (Subject #3, Day 7, Topical 0.15% in PEG (Cohort 2)): 2
- Q2 appearance of my skin around either of my eyes, Score (Subject #3, Day 14, Topical 0.15% in PEG (Cohort 2)): 2
- Q2 appearance of my skin around either of my eyes, Score (Subject #4, Day 7, Topical 0.15% in PEG (Cohort 2)): 3
- Q2 appearance of my skin around either of my eyes, Score (Subject #4, Day 14, Topical 0.15% in PEG (Cohort 2)): 3
- Q2 appearance of my skin around either of my eyes, Score (Subject #5, Day 7, Topical 0.05% in PEG (Cohort 3)): 1
- Q2 appearance of my skin around either of my eyes, Score (Subject #5, Day 14, Topical 0.05% in PEG (Cohort 3)): 1
- Q2 appearance of my skin around either of my eyes, Score (Subject #6, Day 7, Topical 0.05% in PEG (Cohort 3)): 2
- Q2 appearance of my skin around either of my eyes, Score (Subject #6, Day 14, Topical 0.05% in PEG (Cohort 3)): 2
